Measurements as given in patent publication US20260272868A1 (priority 2022, published 2026).

What was measured:
5-HT2A receptor = biological target: T1, 5-HT2A receptor (Mus musculus, UniProt P35363); assay: Ex vivo occupancy of cortical 5-HT2A receptors by DOPR, [3H]MDL100,907 autoradiography; type: in vivo, mice; conditions: for receptor occupancy at 0.32 mg/kg / receptor occupancy at 1 mg/kg / receptor occupancy at 3.2 mg/kg / receptor occupancy at 32 mg/kg: mouse, sc
T1 construct: Coronal sections containing the frontal cortex were be cut (20 μm thick) using a cryostat; from tissue; host or cells: frontal cortex sections of male C57BL/6 mouse brain
Description: Mice had free access to food and water. Animals were randomly assigned to treatment groups.
Doses were calculated based on the HCl salt. MDL100,907 [methyl-^3H] was purchased from Novandi Chemistry. Ketanserin was purchased from Tocris (UK).
Mice were dosed with vehicle or DOPR (0.32, 1, 3.2, or 32 mg/kg, SC) and sacrificed at 15 or 60 minutes after dosing (n=5 per dose/time condition) by a rising CO2 concentration followed by cervical dislocation. Whole brains were removed, rinsed briefly with saline, and blot dried. A coronal cut was made at the level of the optic chiasm to produce an anterior brain block containing the frontal cortex (according to the Mouse Brain in Stereotaxic Coordinates, Paxinos and Franklin, second edition). The anterior brain block was then cut down the midline, both blocks were placed onto cork disks, covered with OCT embedding matrix (KMA-0100-00A, Cell Path), rapidly frozen in isopentane (cooled to −20/−30° C.) and stored at −20° C. for sectioning and ex vivo autoradiography. Coronal sections containing the frontal cortex were be cut (20 μm thick) using a cryostat and thaw mounted onto Superfrost plus slides and the slides were stored at −20° C. until the day of assay.
Slides containing brain sections were warmed to room temperature and sections were isolated using a DAKO pen and incubated at room temperature for 30 minutes in 200 μL of assay buffer containing 0.2 nM [^3H]MDL100,907 (total binding) or 0.2 nM [^3H]MDL100,907 and […] ketanserin (non-specific binding). Solutions were removed from the sections by aspiration and the slides were washed for two consecutive 5-minute periods in ice-cold wash buffer. The slides were then rinsed briefly in ice-cold distilled water to remove buffer salts and allowed to air dry. The assay and wash buffer consisted of 50 mM Tris, pH 7.4. The binding assay was performed on two separate occasions.
The waxy residue of the DAKO pen was removed with xylene to prevent sparks in the β-imager. Lint-free tissue and an air duster was used to remove any dust particles from the microscope slides. To make the slides conductive, copper foil tape was adhered to the free side of the microscope slides. The slides were placed in the β-imager and the levels of bound radioactivity in the sections were directly determined by counting the number of β-particles emerging from the delineated area using the M3 vision program (BioSpace). Data was collected from the brain sections over 16 hours and expressed in counts per minute per square millimetre (cpm/mm^2). A value for specific binding (cpm/mm^2) was generated by the subtraction of mean non-specific binding (cpm/mm^2) from mean total binding (cpm/mm^2) for each animal.

[1] = DOPR pharmacokinetics after SC administration; conditions: mouse, in vivo
[2] = tested on: head twitch response (HTR); type: in vivo, mice; conditions: SC; higher and lower doses result in fewer HTRs
Description: Male C57BL/6 mice (~7-9 weeks old) were used in these studies. Mice were housed 2 per cage under standard temperature- and humidity-controlled laboratory conditions with a 12-hour light/dark cycle. Mice had free access to food and water.
Both compounds were dissolved in saline vehicle at a dose volume of 10 mL/kg. Doses were corrected for salt form so that the dose administered represented free base.
Mice were randomly assigned to 1 of 6 treatment groups consisting of 2 subcutaneous injections (see Table 1), which were administered according to the schedule in FIG. 1. […] Behavior was videotaped by a camera (GoPro Hero 9) mounted above the testing chambers. Recorded video was uploaded for analysis of head twitch behavior. Number of head twitch responses (HTRs) was recorded for each animal for each 2-min bin. For each treatment group, the mean number of HTRs in each 2- or 10-min bin, and across the whole 30-min recording period, were analyzed.

T1 sequence (P35363 whole entry): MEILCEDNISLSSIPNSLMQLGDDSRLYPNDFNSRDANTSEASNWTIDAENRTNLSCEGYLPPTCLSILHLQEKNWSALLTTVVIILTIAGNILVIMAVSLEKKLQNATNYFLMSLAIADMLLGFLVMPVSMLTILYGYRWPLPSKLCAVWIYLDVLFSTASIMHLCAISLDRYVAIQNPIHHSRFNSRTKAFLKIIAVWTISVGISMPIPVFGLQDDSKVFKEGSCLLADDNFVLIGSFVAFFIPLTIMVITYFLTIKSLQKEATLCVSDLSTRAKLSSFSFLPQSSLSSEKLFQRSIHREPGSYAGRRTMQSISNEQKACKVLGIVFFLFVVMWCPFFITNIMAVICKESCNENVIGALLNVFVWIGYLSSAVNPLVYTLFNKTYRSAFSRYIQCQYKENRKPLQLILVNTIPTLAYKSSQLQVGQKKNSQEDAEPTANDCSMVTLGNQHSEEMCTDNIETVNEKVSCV

CCCc1cc(OC)c(CC(C)N)cc1OC (stereo not drawn) [DOPR, 2,5-dimethoxy-4-propylamphetamine]
Specific Binding (% of Vehicle) (5-HT2A receptor; DOPR 0.32 mg/kg SC, 15 min): 105 % of Vehicle | Specific binding, Mean (SEM) (5-HT2A receptor; DOPR 0.32 mg/kg SC, 15 min): 1.39 (0.06) cpm/mm^2 | Specific Binding (% of Vehicle) (5-HT2A receptor; DOPR 0.32 mg/kg SC, 60 min): 93 % of Vehicle | Specific binding, Mean (SEM) (5-HT2A receptor; DOPR 0.32 mg/kg SC, 60 min): 1.23 (0.08) cpm/mm^2 | Specific Binding (% of Vehicle) (5-HT2A receptor; DOPR 1 mg/kg SC, 15 min): 104 % of Vehicle | Specific binding, Mean (SEM) (5-HT2A receptor; DOPR 1 mg/kg SC, 15 min): 1.38 (0.06) cpm/mm^2 | Specific Binding (% of Vehicle) (5-HT2A receptor; DOPR 1 mg/kg SC, 60 min): 67 % of Vehicle | Specific binding, Mean (SEM) (5-HT2A receptor; DOPR 1 mg/kg SC, 60 min): 0.88 (0.07) cpm/mm^2 | Specific Binding (% of Vehicle) (5-HT2A receptor; DOPR 3.2 mg/kg SC, 15 min): 71 % of Vehicle | Specific binding, Mean (SEM) (5-HT2A receptor; DOPR 3.2 mg/kg SC, 15 min): 0.93 (0.09) cpm/mm^2 | Specific Binding (% of Vehicle) (5-HT2A receptor; DOPR 3.2 mg/kg SC, 60 min): 43 % of Vehicle | Specific binding, Mean (SEM) (5-HT2A receptor; DOPR 3.2 mg/kg SC, 60 min): 0.57 (0.05) cpm/mm^2 | Specific Binding (% of Vehicle) (5-HT2A receptor; DOPR 32 mg/kg SC, 15 min): 18 % of Vehicle | Specific binding, Mean (SEM) (5-HT2A receptor; DOPR 32 mg/kg SC, 15 min): 0.23 (0.04) cpm/mm^2 | Specific Binding (% of Vehicle) (5-HT2A receptor; DOPR 32 mg/kg SC, 60 min): 8 % of Vehicle | Specific binding, Mean (SEM) (5-HT2A receptor; DOPR 32 mg/kg SC, 60 min): 0.10 (0.01) cpm/mm^2 | dose calculated to occupy 50% of 5-HT2A receptors (5-HT2A receptor; SC, mice): 2.08 mg/kg | receptor occupancy at 0.32 mg/kg (5-HT2A receptor; DOPR 0.32 mg/kg SC, 15 min): -5% | receptor occupancy at 0.32 mg/kg (5-HT2A receptor; DOPR 0.32 mg/kg SC, 60 min): 7% | receptor occupancy at 1 mg/kg (5-HT2A receptor; DOPR 1 mg/kg SC, 15 min): -4% | receptor occupancy at 1 mg/kg (5-HT2A receptor; DOPR 1 mg/kg SC, 60 min): 33% | receptor occupancy at 3.2 mg/kg (5-HT2A receptor; DOPR 3.2 mg/kg SC, 15 min): 29% | receptor occupancy at 3.2 mg/kg (5-HT2A receptor; DOPR 3.2 mg/kg SC, 60 min): 57% | receptor occupancy at 32 mg/kg (5-HT2A receptor; DOPR 32 mg/kg SC, 15 min): 82% | receptor occupancy at 32 mg/kg (5-HT2A receptor; DOPR 32 mg/kg SC, 60 min): 92% | Tmax [1]: 1 h | dose maximally efficacious for induction of HTR [2]: 3.2 mg/kg
